Assay results from patent publication US20260070945A1, “MACROCYCLIC IMMUNOMODULATORS” (Bristol-Myers Squibb Company, priority 2022, published 2026).
Where a SMILES comes first, the peptide text is derived from it. Bridges are numbered along the chain shown (N, C = ends). [ ]: non-standard residue; d: D form. The star is where a group is joined. ξ: configuration not given here. Phe(3-CF3) = N[C@@H](Cc1cccc(C(F)(F)F)c1)C(=O)O; Phe(4-COOH) = N[C@@H](Cc1ccc(C(=O)O)cc1)C(=O)O; Bip = N[C@@H](Cc1ccc(-c2ccccc2)cc1)C(=O)O; Phe(3-Me) = Cc1cccc(C[C@H](N)C(=O)O)c1; NH(CH2)12COOH = O=C(O)CCCCCCCCCCCCN*; Val(3-OH) = CC(C)(O)[C@H](N)C(=O)O; 4Pal = N[C@@H](Cc1ccncc1)C(=O)O; Cha = N[C@@H](CC1CCCCC1)C(=O)O; Cit = NC(=O)NCCC[C@H](N)C(=O)O; Ile(3ξ) = CCC(C)[C@H](N)C(=O)O; Thr(3ξ) = CC(O)[C@H](N)C(=O)O; dDab = NCC[C@@H](N)C(=O)O; Carboxymethyl = O=C(O)C*; NMeA = CN[C@@H](C)C(=O)O; Orn = NCCC[C@H](N)C(=O)O; Aun = NCCCCCCCCCCC(=O)O; Dab = NCC[C@H](N)C(=O)O; AEEA = NCCOCCOCC(=O)O; Sar = CNCC(=O)O

biological target: T1, PD-1/PD-L1 interaction (PE-labeled human PD-L1-Ig binding to Jurkat cell line over-expressing human PD-1) (Homo sapiens, UniProt Q15116); assay: Jurkat-PD-1 Cell Binding High-Content Screening Assay (CBA); conditions: Jurkat-hPD-1 cells, PE-labeled PD-L1-Ig 20 nM final; read-out: Jurkat HPD1 PDL1 IC50
T1 construct: expressed in transfected cells; host or cells: Jurkat
T1 sequence (Q15116 25-288): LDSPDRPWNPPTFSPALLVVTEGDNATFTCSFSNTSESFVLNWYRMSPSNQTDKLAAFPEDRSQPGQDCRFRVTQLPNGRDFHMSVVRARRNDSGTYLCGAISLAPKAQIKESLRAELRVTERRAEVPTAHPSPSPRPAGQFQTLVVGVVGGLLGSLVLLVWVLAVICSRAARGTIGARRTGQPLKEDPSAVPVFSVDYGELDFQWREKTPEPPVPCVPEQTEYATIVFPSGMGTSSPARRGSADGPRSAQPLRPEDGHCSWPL
Procedure, shortened: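 Compound is added first to the PD-1-expressing Jurkat cells and held 2 h at 37 °C in serum-containing DMEM. The fluorescent PD-L1 fusion follows at 20 nM final for 1 h. Fixed, Hoechst-stained cells are then imaged for bound label.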

Row | IC50 | SMILES
1 | 9.9 nM | CC(C)C[C@@H]1NC(=O)[C@H](Cc2c[nH]c3ccccc23)NC(=O)[C@H](CC(=O)O)NC(=O)[C@H](Cc2ccc(C(=O)O)cc2)NC(=O)[C@H](Cc2ccc(OCC(=O)O)cc2)NC(=O)CSC[C@@H](C(=O)N[C@@H](CCN)C(=O)NCCOCCOCC(=O)NCCCCCCCCCCC(=O)O)NC(=O)[C@H](CCC(N)=O)NC(=O)[C@H](C(C)(C)O)NC(=O)[C@H](CC2CCCCC2)NC(=O)[C@H](CCN)NC(=O)[C@@H](CC(C)C)NC(=O)[C@H](C)N(C)C(=O)[C@H](C(C)C)NC(=O)[C@H](Cc2ccc(-c3ccccc3)cc2)NC1=O [Example 1125] ({CH2CO}-Y(Carboxymethyl)[Phe(4-COOH)]DWL[Bip]V[NMeA][dL][Dab][Cha][Val(3-OH)]QC[Dab][AEEA][Aun]-OH; thioether N-14)
2 | 203 nM | Cc1cccc(C[C@@H]2NC(=O)[C@H](CC(=O)O)NC(=O)[C@H](Cc3ccc(OCC(=O)O)cc3)NC(=O)[C@@H]([C@H](C)O)NC(=O)CSC[C@@H](C(=O)NCCOCCOCC(=O)NCCCCCCCCCCC(=O)O)NC(=O)[C@H]([C@@H](C)O)NC(=O)[C@H](C(C)C)NC(=O)[C@H](CC3CCCCC3)NC(=O)[C@H](CCN)NC(=O)[C@@H](CC(C)C)NC(=O)[C@H](C)N(C)C(=O)[C@H](CCCNC(N)=O)NC(=O)[C@H](Cc3ccc(-c4ccccc4)cc3)NC(=O)[C@H](C(C)C)NC2=O)c1 [Example 1402] ({CH2CO}-[dT]Y(Carboxymethyl)D[Phe(3-Me)]V[Bip][Cit][NMeA][dL][Dab][Cha]VTC[AEEA][Aun]-OH; thioether N-14)
3 | 28.5 nM | Cc1cccc(C[C@@H]2NC(=O)[C@H](CC(=O)O)NC(=O)[C@H](Cc3ccc(OCC(=O)O)cc3)NC(=O)[C@H](CCCNC(=N)N)NC(=O)CSC[C@@H](C(=O)N(C)CC(=O)NCCCCCCCCCCC(=O)O)NC(=O)[C@H](CCCNC(N)=O)NC(=O)[C@H](C(C)C)NC(=O)[C@H](CC3CCCCC3)NC(=O)[C@H](CCN)NC(=O)[C@@H](CC(C)C)NC(=O)[C@H](C)N(C)C(=O)[C@H](C(C)C)NC(=O)[C@H](Cc3ccc(-c4ccccc4)cc3)NC(=O)[C@H](C(C)C)NC2=O)c1 [Example 2260] ({CH2CO}-RY(Carboxymethyl)D[Phe(3-Me)]V[Bip]V[NMeA][dL][Dab][Cha]V[Cit]C[Sar][Aun]-OH; thioether N-14)
4 | 79.1 nM | CCC(C)[C@@H]1NC(=O)[C@H](Cc2ccc(-c3ccccc3)cc2)NC(=O)[C@H](CC(C)C)NC(=O)[C@H](Cc2c[nH]c3ccccc23)NC(=O)[C@H](CC(=O)O)NC(=O)[C@H](Cc2ccc(OCC(=O)O)cc2)NC(=O)[C@H](C(C)O)NC(=O)CSC[C@@H](C(=O)NCCOCCOCC(=O)N[C@@H](CCCN)C(=O)NCCCCCCCCCCC(=O)O)NC(=O)[C@H](CO)NC(=O)[C@H](C(C)C)NC(=O)[C@H](CC(C)C)NC(=O)[C@H](CC(N)=O)NC(=O)[C@@H](CC(C)C)NC(=O)[C@H](C)N(C)C1=O (stereo partly drawn) [Example 2052] ({CH2CO}-[Thr(3ξ)]Y(Carboxymethyl)DWL[Bip][Ile(3ξ)][NMeA][dL]NLVSC[AEEA][Orn][Aun]-OH; thioether N-14)
5 | 32.1 nM | Cc1cccc(C[C@@H]2NC(=O)[C@H](CC(=O)O)NC(=O)[C@H](Cc3ccc(OCC(=O)O)cc3)NC(=O)[C@H](C(C)O)NC(=O)CSC[C@@H](C(=O)N[C@@H](CCN)C(=O)NCCOCCOCC(=O)NCCCCCCCCCCC(=O)O)NC(=O)[C@H](CCC(=O)O)NC(=O)[C@H](C(C)(C)O)NC(=O)[C@H](CC3CCCCC3)NC(=O)[C@H](CCN)NC(=O)[C@@H](CC(C)C)NC(=O)[C@H](C)N(C)C(=O)[C@H](Cc3ccc(OCC(=O)O)cc3)NC(=O)[C@H](Cc3ccc(-c4ccccc4)cc3)NC(=O)[C@H](Cc3ccc(C(=O)O)cc3)NC2=O)c1 (stereo partly drawn) [Example 2473] ({CH2CO}-[Thr(3ξ)]Y(Carboxymethyl)D[Phe(3-Me)][Phe(4-COOH)][Bip]Y(Carboxymethyl)[NMeA][dL][Dab][Cha][Val(3-OH)]EC[Dab][AEEA][Aun]-OH; thioether N-14)
6 | 13 nM | CC(C)C[C@@H]1NC(=O)[C@H](Cc2c[nH]c3ccccc23)NC(=O)[C@H](CC(=O)O)NC(=O)[C@H](Cc2ccncc2)NC(=O)[C@H](Cc2ccc(OCC(=O)O)cc2)NC(=O)CSC[C@@H](C(=O)NCC(=O)NCCOCCOCC(=O)N[C@@H](CCCCN)C(=O)NCCCCCCCCCCC(=O)O)NC(=O)[C@H](CCCNC(N)=O)NC(=O)[C@H](C(C)C)NC(=O)[C@H](CC2CCCCC2)NC(=O)[C@H](CCN)NC(=O)[C@@H](CC(C)C)NC(=O)[C@H](C)N(C)C(=O)[C@H](C(C)C)NC(=O)[C@H](Cc2ccc(-c3ccccc3)cc2)NC1=O [Example 2172] ({CH2CO}-Y(Carboxymethyl)[4Pal]DWL[Bip]V[NMeA][dL][Dab][Cha]V[Cit]CG[AEEA]K[Aun]-OH; thioether N-14)
7 | 12.7 nM | CC(C)C[C@@H]1NC(=O)[C@H](Cc2c[nH]c3ccccc23)NC(=O)[C@H](CC(=O)O)NC(=O)[C@H](Cc2c[nH]cn2)NC(=O)[C@H](Cc2ccc(OCC(=O)O)cc2)NC(=O)CSC[C@@H](C(=O)N[C@@H](CCCN)C(=O)NCCOCCOCC(=O)NCCCCCCCCCCC(=O)O)NC(=O)[C@H](CO)NC(=O)[C@H](C(C)C)NC(=O)[C@H](CC2CCCCC2)NC(=O)[C@H](CCN)NC(=O)[C@@H](CC(C)C)NC(=O)[C@H](C)N(C)C(=O)[C@H](C(C)C)NC(=O)[C@H](Cc2ccc(-c3ccccc3)cc2)NC1=O [Example 2146] ({CH2CO}-Y(Carboxymethyl)HDWL[Bip]V[NMeA][dL][Dab][Cha]VSC[Orn][AEEA][Aun]-OH; thioether N-14)
8 | 9.6 nM | CC(C)C[C@@H]1NC(=O)[C@H](Cc2c[nH]c3ccccc23)NC(=O)[C@H](CC(=O)O)NC(=O)[C@H](Cc2ccc(C(=O)O)cc2)NC(=O)[C@H](Cc2ccc(OCC(=O)O)cc2)NC(=O)CSC[C@@H](C(=O)N[C@@H](CCN)C(=O)NCCOCCOCC(=O)NCCCCCCCCCCC(=O)O)NC(=O)[C@H](CO)NC(=O)[C@H](C(C)C)NC(=O)[C@H](CC2CCCCC2)NC(=O)[C@H](CCN)NC(=O)[C@@H](CC(C)C)NC(=O)[C@H](C)N(C)C(=O)[C@H](C(C)C)NC(=O)[C@H](Cc2ccc(-c3ccccc3)cc2)NC1=O [Example 2094] ({CH2CO}-Y(Carboxymethyl)[Phe(4-COOH)]DWL[Bip]V[NMeA][dL][Dab][Cha]VSC[Dab][AEEA][Aun]-OH; thioether N-14)
9 | 10.4 nM | CC(C)C[C@@H]1NC(=O)[C@H](Cc2c[nH]c3ccccc23)NC(=O)[C@H](CC(=O)O)NC(=O)[C@H](Cc2ccc(C(=O)O)cc2)NC(=O)[C@H](Cc2ccc(OCC(=O)O)cc2)NC(=O)CSC[C@@H](C(=O)N[C@@H](CCN)C(=O)NCCOCCOCC(=O)NCCCCCCCCCCC(=O)O)NC(=O)[C@H](CCCNC(N)=O)NC(=O)[C@H](C(C)C)NC(=O)[C@H](CC2CCCCC2)NC(=O)[C@H](CCN)NC(=O)[C@@H](CC(C)C)NC(=O)[C@H](C)N(C)C(=O)[C@H](C(C)C)NC(=O)[C@H](Cc2ccc(-c3ccccc3)cc2)NC1=O [Example 2127] ({CH2CO}-Y(Carboxymethyl)[Phe(4-COOH)]DWL[Bip]V[NMeA][dL][Dab][Cha]V[Cit]C[Dab][AEEA][Aun]-OH; thioether N-14)
10 | 10.9 nM | CC(=O)NCCCC[C@@H]1NC(=O)[C@H](Cc2ccc(-c3ccccc3)cc2)NC(=O)[C@H](CC(C)C)NC(=O)[C@H](Cc2cccc(C)c2)NC(=O)[C@H](CC(=O)O)NC(=O)[C@H](Cc2ccc(OCC(=O)O)cc2)NC(=O)[C@H](Cc2ccc(OCC(=O)O)cc2)NC(=O)CSC[C@@H](C(=O)NCCOCCOCC(=O)NCCCCCCCCCCC(=O)O)NC(=O)[C@H](CCCCN)NC(=O)[C@H](C(C)C)NC(=O)[C@H](CC2CCCCC2)NC(=O)[C@H](CCN)NC(=O)[C@@H](CC(C)C)NC(=O)[C@H](C)N(C)C1=O [Example 2223] ({CH2CO}-Y(Carboxymethyl)Y(Carboxymethyl)D[Phe(3-Me)]L[Bip]K(Ac)[NMeA][dL][Dab][Cha]VKC[AEEA][Aun]-OH; thioether N-14)

same assay, conditions: PE-labeled PD-L1-Ig 20 nM final, Jurkat-hPD-1 cells; read-out: Jurkat HPD1 PDL1 IC50

Row | IC50 | SMILES
11 | 428 nM | CC(C)C[C@H]1NC(=O)[C@H](C)N(C)C(=O)[C@H](Cc2ccc(C(=O)O)cc2)NC(=O)[C@H](Cc2ccc(-c3ccccc3)cc2)NC(=O)[C@H](Cc2ccc(C(=O)O)cc2)NC(=O)[C@H](Cc2cccc(C(F)(F)F)c2)NC(=O)[C@H](CC(=O)O)NC(=O)[C@H](Cc2ccc(C(=O)O)cc2)NC(=O)[C@H](C(C)O)NC(=O)CSC[C@@H](C(=O)N[C@H](CCN)C(=O)NCCOCCOCC(=O)NCCCCCCCCCCCCC(=O)O)NC(=O)[C@H](CC(=O)O)NC(=O)[C@H](C(C)C)NC(=O)[C@H](CC2CCCCC2)NC(=O)[C@H](CCN)NC1=O (stereo partly drawn) [Example 2604] ({CH2CO}-[Thr(3ξ)][Phe(4-COOH)]D[Phe(3-CF3)][Phe(4-COOH)][Bip][Phe(4-COOH)][NMeA][dL][Dab][Cha]VDC[dDab][AEEA]-{NH(CH2)12COOH}; thioether N-14)
12 | 67.1 nM | Cc1cccc(C[C@@H]2NC(=O)[C@H](CC(=O)O)NC(=O)[C@H](Cc3ccc(OCC(=O)O)cc3)NC(=O)[C@H](Cc3ccncc3)NC(=O)CSC[C@@H](C(=O)N[C@@H](CO)C(=O)NCCOCCOCC(=O)NCCCCCCCCCCC(=O)O)NC(=O)[C@H](CCC(=O)O)NC(=O)[C@H](C(C)(C)O)NC(=O)[C@H](CC3CCCCC3)NC(=O)[C@H](CCN)NC(=O)[C@@H](CC(C)C)NC(=O)[C@H](C)N(C)C(=O)[C@H](Cc3ccc(C(=O)O)cc3)NC(=O)[C@H](Cc3ccc(-c4ccccc4)cc3)NC(=O)[C@H](Cc3ccc(C(=O)O)cc3)NC2=O)c1 [Example 2496] ({CH2CO}-[4Pal]Y(Carboxymethyl)D[Phe(3-Me)][Phe(4-COOH)][Bip][Phe(4-COOH)][NMeA][dL][Dab][Cha][Val(3-OH)]ECS[AEEA][Aun]-OH; thioether N-14)
